These results are taken from publication PMC12275099, “VX-445 (elexacaftor) inhibits chloride secretion across human bronchial epithelial cells by directly blocking KCa3.1 channels” (PNAS Nexus, 2025).

Several values for one entry are separate records, joined by “and”; a condition that tells them apart may be missing. Equal entries are not always repeated.

In assay [1] the target is T1, KCa3.1 (Homo sapiens, UniProt O15554).
T1 construct: expressed in transfected cells
The experiment in a line: Excised inside-out patch-clamp on HEK-KCa3.1. It is filed as biochemical. Particulars: for relative remaining current: Fig 3I single experiments. As for the experimental part:
Our Isc results are consistent with VX-445 inhibiting KCa3.1 in HBEs. To directly assess this possibility, we initially carried out whole-cell patch-clamp studies on undifferentiated HBEs. […] Upon application of 10 µM VX-445, a majority of this current was inhibited, averaging 87 ± 4% (n = 3, P < 0.005; Fig. 3B). A summary of the current–voltage (I–V) relationship—normalized to cell capacitance—is shown in Fig. 3C, which also includes the whole-cell I–V in the presence of Tram-34. […] To ensure isolation of KCa3.1 currents and to more fully characterize this VX-445-dependent inhibition of KCa3.1, we utilized HEK cells heterologously expressing KCa3.1 (HEK-KCa3.1). Initially, we confirmed our results from HBEs, using whole-cell recordings, as above. […] In seven experiments, this inhibition averaged 58 ± 7% (P < 0.005). […] It is well recognized that drugs are carried to their targets in the blood bound to albumin, which ranges from 3.4 to 5.4%. Thus, we determined whether VX-445 (10 µM) would inhibit KCa3.1 expressed in HEK cells in the presence of 3.4% albumin. In four experiments, VX-445 inhibited an average of 51 ± 17% of the whole-cell KCa3.1 current, which is not different from that observed in the absence of albumin. To confirm the direct effect of VX-445 on KCa3.1, we utilized the excised, inside-out patch-clamp technique. The patch was then exposed to DCEBIO (100 µM) to further activate the channels ([34–37])—analogous to our Isc studies in HBEs. […] In three experiments, VX-445 inhibited an average of 63 ± 6% of the KCa3.1 current. Based on these experiments, we determined the apparent inhibitory constant, Ki for VX-445. For these experiments, patches were excised into saturating Ca^2+ (3 µM) to ensure maximal KCa3.1 activation. These studies were carried out in the absence of DCEBIO to eliminate the possibility that the inhibition observed was due to competition for the DCEBIO-binding site.
HEK cells stably expressing KCa3.1 (IK1, SK4), KCa2.3 (SK3), and KCa2.2 (SK2) were generated and cultured as previously described by us ([37], [66–71]).
HEK cells expressing the channel of interest were plated onto poly-L-lysine-coated glass coverslips 1–2 days prior to patch-clamp analysis. Electrophysiological recordings in the excised, inside-out, and whole-cell patch-clamp configurations were performed as recently described ([14]). For excised patch-clamp recordings, the pipette solution contained (in mM): 140 K-gluconate, 5 KCl, 1 CaCl2, 1 MgCl2, and 10 HEPES. The pH was adjusted to 7.2 with KOH. The bath solution contained (in mM): 145 K-gluconate, 5 KCl, 1.3 MgCl2, 10 HEPES, and 1 EGTA. Sufficient CaCl2 was added to obtain the desired free Ca^2+ concentration at a pH of 7.2 (adjusted with KOH). When recording KCa3.1 channels, ATP (300 µM) was added to the bath to diminish channel rundown ([73]). All recordings were carried out at a voltage of −100 mV, referenced to the extracellular compartment, as is standard. The apparent Ki and Hill coefficient for each CFTR corrector on KCa3.1, KCa2.3, and KCa2.2 were determined during a continuous recording by step-wise addition of increasing concentrations of compound and fitting the resultant relative remaining current to a Hill equation (Prism v. 10.1.0). The zero current level was determined by the addition of a 0 Ca^2+ solution (zero-added Ca^2+ plus 1 mM EGTA) at the end of the experiment. In the case of KCa3.1, TRAM-34, a known inhibitor of KCa3.1 ([45]), was used to confirm expression of the channel. For whole-cell experiments, pipettes contained (in mM): 145 K-gluconate, 10 EGTA, 7.5 CaCl2, 2 MgCl2, 3 mM NaATP, and 10 HEPES. The bath solution contained (in mM): 140 K-gluconate, 5 KCl, 1.0 MgCl2, 10 HEPES, and 2 CaCl2. Current–voltage relationships were determined by stepping from a holding potential of −80 mV to +80 mV in 20 mV increments for 400 ms. […]

Assay [2] deals with BKCa (KCa1.1, KCNMA1) channels. More on the design: method as in PMID 38954478. To be noted: primary HBEs and HEK cells heterologously expressing the channel; cited from earlier work.

As for `Cc1nn(C)cc1S(=O)(=O)NC(=O)c1ccc(-n2ccc(OCC(C)(C)C(F)(F)F)n2)nc1N1C[C@@H](C)CC1(C)C` [VX-445, elexacaftor], the Hill coefficient (commonly the slope factor of the fitted curve) in assay [1] (3 µM free Ca2+, absence of DCEBIO) was 1.2. Also, in assay [1] (3 µM free Ca2+, absence of DCEBIO, Hill fit, n = 4, read-out: apparent Ki), the Ki stood at 8 ± 2 µM. Besides, the inhibition (usually the share of the control response that was lost under treatment) at 10 µM in assay [1] (10 µM compound after DCEBIO 100 µM, 1 µM free Ca2+, three experiments, read-out: inhibition of KCa3.1 current in excised patch) worked out at 63 ± 6%. Also, in assay [1] (KCa3.1 versus KCa2.2 and KCa2.3), the “selectivity among KCNN gene family members” value is on record as “exhibits selectivity for KCa3.1 over KCa2.x channels”. In addition, the relative remaining current is 100 in assay [1] ([VX-445] 0.1); 86 and 95 and 100 and 83 in assay [1] ([VX-445] 1); 68 and 80 and 93 and 62 in assay [1] ([VX-445] 3). Moreover, in assay [2], the “effect on BKCa” value is “act as direct potentiators”.
